Read-outs that look alike come from different tables or passages of the source.
Assays:
Assay type in all cases: binding
[1] = molecular target: T1, HeLa cell extract proteins (Homo sapiens, UniProt P47712)
T1 construct: endogenous in cells; host or cells: HeLa cell extract
T1 sequence (P47712 1-749): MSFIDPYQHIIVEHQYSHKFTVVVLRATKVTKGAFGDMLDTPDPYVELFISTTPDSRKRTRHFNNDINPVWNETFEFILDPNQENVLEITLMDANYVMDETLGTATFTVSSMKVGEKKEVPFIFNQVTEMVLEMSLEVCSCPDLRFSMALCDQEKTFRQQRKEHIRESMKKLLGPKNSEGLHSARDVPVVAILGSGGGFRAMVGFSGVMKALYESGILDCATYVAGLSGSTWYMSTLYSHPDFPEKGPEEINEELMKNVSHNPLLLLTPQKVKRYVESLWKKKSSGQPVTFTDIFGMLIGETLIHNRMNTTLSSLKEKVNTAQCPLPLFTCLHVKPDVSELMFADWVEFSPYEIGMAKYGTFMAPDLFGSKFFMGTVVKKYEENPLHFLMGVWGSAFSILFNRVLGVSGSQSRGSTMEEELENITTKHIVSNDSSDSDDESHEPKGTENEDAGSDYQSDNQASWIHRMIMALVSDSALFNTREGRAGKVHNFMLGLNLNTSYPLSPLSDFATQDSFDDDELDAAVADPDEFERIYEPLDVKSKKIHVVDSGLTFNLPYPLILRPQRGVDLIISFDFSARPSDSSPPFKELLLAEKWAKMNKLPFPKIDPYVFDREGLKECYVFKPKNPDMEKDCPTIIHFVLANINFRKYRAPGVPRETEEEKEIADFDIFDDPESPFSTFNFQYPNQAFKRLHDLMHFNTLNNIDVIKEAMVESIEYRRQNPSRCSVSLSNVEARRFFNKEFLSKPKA

[2] = molecular target: T2, HeLa cell extract proteins (Homo sapiens, UniProt P22695)
T2 construct: endogenous in cells; host or cells: HeLa cell extract
T2 sequence (P22695 15-453): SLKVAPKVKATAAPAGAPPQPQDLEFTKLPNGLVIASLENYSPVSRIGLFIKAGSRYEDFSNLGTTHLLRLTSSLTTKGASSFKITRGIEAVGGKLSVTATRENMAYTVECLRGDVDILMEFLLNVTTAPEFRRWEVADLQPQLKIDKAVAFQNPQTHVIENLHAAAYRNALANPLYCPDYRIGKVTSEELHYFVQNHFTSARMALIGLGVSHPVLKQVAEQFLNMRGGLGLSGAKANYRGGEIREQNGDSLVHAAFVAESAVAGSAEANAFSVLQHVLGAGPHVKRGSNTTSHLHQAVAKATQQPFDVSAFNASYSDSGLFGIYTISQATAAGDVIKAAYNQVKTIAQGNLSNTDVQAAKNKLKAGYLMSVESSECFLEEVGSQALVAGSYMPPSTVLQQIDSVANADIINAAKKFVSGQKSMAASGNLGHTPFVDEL

[3] = molecular target: T3, HeLa cell extract proteins (Homo sapiens, UniProt P54819)
T3 construct: endogenous in cells; host or cells: HeLa cell extract

[4] = molecular target: T4, HeLa cell extract proteins (Homo sapiens, UniProt O75390)
T4 construct: endogenous in cells; host or cells: HeLa cell extract
T4 sequence (O75390 28-466): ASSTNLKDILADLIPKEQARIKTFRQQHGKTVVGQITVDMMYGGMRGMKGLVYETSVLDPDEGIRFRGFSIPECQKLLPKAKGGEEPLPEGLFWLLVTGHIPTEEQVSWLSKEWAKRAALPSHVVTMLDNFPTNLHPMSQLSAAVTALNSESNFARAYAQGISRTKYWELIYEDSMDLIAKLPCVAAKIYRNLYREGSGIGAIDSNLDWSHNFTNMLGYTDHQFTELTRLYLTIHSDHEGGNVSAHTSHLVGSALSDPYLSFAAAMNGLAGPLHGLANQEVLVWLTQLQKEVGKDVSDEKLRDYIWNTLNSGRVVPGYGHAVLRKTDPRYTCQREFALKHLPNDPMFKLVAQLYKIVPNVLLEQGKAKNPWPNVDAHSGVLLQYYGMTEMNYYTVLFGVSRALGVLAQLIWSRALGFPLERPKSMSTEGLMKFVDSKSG

[5] = molecular target: T5, HeLa cell extract proteins (Homo sapiens, UniProt Q9H3U1)
T5 construct: endogenous in cells; host or cells: HeLa cell extract
T5 sequence (Q9H3U1 1-944): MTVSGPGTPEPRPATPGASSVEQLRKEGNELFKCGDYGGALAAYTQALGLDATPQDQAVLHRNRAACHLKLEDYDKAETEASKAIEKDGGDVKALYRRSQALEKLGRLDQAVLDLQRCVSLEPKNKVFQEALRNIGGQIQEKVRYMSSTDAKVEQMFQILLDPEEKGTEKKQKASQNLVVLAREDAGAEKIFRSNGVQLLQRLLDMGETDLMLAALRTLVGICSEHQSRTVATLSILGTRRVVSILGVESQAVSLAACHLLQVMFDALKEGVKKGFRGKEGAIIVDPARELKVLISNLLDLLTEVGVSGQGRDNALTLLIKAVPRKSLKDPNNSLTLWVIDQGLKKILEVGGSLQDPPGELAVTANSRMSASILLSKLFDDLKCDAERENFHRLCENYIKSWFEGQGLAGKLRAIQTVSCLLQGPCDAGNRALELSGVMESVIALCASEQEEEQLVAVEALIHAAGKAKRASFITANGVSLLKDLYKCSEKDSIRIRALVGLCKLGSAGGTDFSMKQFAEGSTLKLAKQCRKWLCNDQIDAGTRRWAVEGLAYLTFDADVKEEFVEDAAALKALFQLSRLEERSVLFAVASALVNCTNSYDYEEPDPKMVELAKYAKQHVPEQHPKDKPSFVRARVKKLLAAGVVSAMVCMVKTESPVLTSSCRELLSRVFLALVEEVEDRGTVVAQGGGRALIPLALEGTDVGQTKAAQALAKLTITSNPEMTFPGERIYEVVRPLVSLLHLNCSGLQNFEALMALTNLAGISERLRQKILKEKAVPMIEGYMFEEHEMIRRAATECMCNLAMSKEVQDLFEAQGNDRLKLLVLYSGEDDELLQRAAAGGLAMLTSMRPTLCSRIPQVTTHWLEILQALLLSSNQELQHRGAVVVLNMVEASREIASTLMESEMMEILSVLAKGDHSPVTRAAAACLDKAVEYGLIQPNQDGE

[6] = molecular target: T6, HeLa cell extract proteins (Homo sapiens, UniProt Q96DG6)
T6 construct: endogenous in cells; host or cells: HeLa cell extract
T6 sequence (Q96DG6 1-245): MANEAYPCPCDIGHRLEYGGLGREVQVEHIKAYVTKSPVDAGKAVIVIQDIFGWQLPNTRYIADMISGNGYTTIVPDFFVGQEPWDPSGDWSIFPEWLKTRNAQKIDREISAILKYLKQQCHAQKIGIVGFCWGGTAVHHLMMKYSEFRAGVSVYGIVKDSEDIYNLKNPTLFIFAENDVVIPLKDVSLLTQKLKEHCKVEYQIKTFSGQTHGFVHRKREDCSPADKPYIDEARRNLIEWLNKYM

Structure (SMILES)	fold changes relative to vehicle control ([1]; HeLa, protein PLA2G4A)	fold changes relative to vehicle control ([2]; HeLa, protein UQCRC2)	fold changes relative to vehicle control ([3]; protein AK2, HeLa)	fold changes relative to vehicle control ([4]; HeLa, captured protein CS)	fold changes relative to vehicle control ([5]; HeLa, protein UNC45A)	fold changes relative to vehicle control ([6]; HeLa, protein CMBL)	fold changes relative to vehicle control [1]	fold changes relative to vehicle control [2]	fold changes relative to vehicle control [3]	fold changes relative to vehicle control [4]	fold changes relative to vehicle control [5]	fold changes relative to vehicle control [6]	fold changes relative to vehicle control ([1]; protein PLA2G4A, HeLa)	fold changes relative to vehicle control ([3]; captured protein AK2, HeLa)	fold changes relative to vehicle control ([4]; protein CS, HeLa)	fold changes relative to vehicle control ([5]; protein UNC45A, HeLa)	fold changes relative to vehicle control ([6]; protein CMBL, HeLa)
Nc1nc2c(c(=O)[nH]1)N(C=O)C(CNc1ccc(C(=O)N[C@@H](CCC(=O)O)C(=O)O)cc1)CN2 (stereo partly drawn) [LEU, leucovorin]	0.94	0.9	0.99	1.05	1.07	1.04											
Nc1nc2[nH]cc(CCc3ccc(C(=O)N[C@@H](CCC(=O)O)C(=O)O)cc3)c2c(=O)[nH]1 [PTX, pemetrexed]							1.13	0.93	0.86	1.2	0.99	0.97					
CCCCCCOc1ccc(Cc2cnc(N)nc2N)cc1 [compound 1]		0.97											1	1.04	1.38	1.44	1.08
CCCCCCOc1cccc(Cc2cnc(N)nc2N)c1 [compound 2]		0.99											1.72	1	1.99	1.53	1.38
Nc1nc2cccc(-c3ccccc3)c2n1Cc1ccc(Cl)c(Cl)c1 [compound 3]		1.01											0.91	0.91	1.02	0.97	1.17
NCCOCCOCC(=O)Nc1nc2ncc(CNc3ccc(C(=O)NC(CCC(=O)O)C(=O)O)cc3)nc2c(=O)[nH]1 (stereo not drawn) [compound 6]	1.18	0.95	0.95	1.32	1.16	1.03											
NCCCNc1ccc(C(=O)NC(CCC(=O)O)C(=O)O)cc1 (stereo not drawn) [compound 7]	0.88	1.03	1.08	1.3	1.05	1.25											

Reference: PMC6199744, “Development of Chemical Proteomics for the Folateome and Analysis of the Kinetoplastid Folateome” (ACS Infectious Diseases, 2018)
